Results: paper PMC10831936 (iScience, 2024)
“Also recorded” adds a separate entry of the source. Read-outs that look alike come from different tables or passages of the source.

Key:
[1] = tested on: ERBB receptors, HTR2A, and downstream signaling pathways; assay: ERBBprofiler multiplexed barcoded assay, overall statements across all receptor batches and sensors; conditions: for CRE sensor response at high compound concentration (barcoded): 10 μM compound, PC12 cells, stimulation mix
ERBB4 [2] = target: ERBB4 (Homo sapiens, UniProt Q15303); assay: ERBBprofiler barcoded split TEV assay, ERBB4; conditions: ERBB4 UAS (split TEV) IC50, PC12 cells; constant EGF 30 ng/mL, EGFld 10 ng/mL, serotonin 1 μM; 6 h; barcode readout; relative IC50
HTR2A = HTR2A (Homo sapiens, UniProt P28223); assay: ERBBprofiler barcoded split TEV assay, HTR2A
EGFR EGR1p = assay: ERBBprofiler barcoded EGR1p pathway sensor, EGFR co-transfected; conditions: Rattus norvegicus, PC-12, 6 h, read-out: EGFR EGR1p IC50
NCI-H1975 cells = tested on: NCI-H1975 cells; parameters: method as in Dong et al., 2019; conditions: growth of NCI-H1975 cells; ref Dong et al., 2019; read-out: IC50_Literature, EGFR; cited from earlier work
EGFR NFAT = assay: ERBBprofiler barcoded NFAT pathway sensor, EGFR co-transfected; type: cell-based, Rattus norvegicus
HTR2A EGR1p = assay: ERBBprofiler barcoded EGR1p pathway sensor, HTR2A co-transfected; conditions: Rattus norvegicus, PC-12, 6 h, read-out: HTR2A EGR1p IC50
HTR2A NFAT = assay: ERBBprofiler barcoded NFAT pathway sensor, HTR2A co-transfected; conditions: Rattus norvegicus, PC-12, 6 h, read-out: HTR2A NFAT IC50
ERBB4 EGR1p = assay: ERBBprofiler barcoded EGR1p pathway sensor, ERBB4 co-transfected; conditions: Rattus norvegicus, PC-12, 6 h, read-out: ERBB4 EGR1p IC50
ERBB2/3 EGR1p = assay: ERBBprofiler barcoded EGR1p pathway sensor, ERBB2/3 co-transfected; conditions: Rattus norvegicus, PC-12, 6 h, read-out: ERBB2/3 EGR1p IC50
cAMP = assay: GloSensor cAMP assay in PC12 cells; type: cell-based, Rattus norvegicus
Procedure: The GloSensor cAMP assay was conducted with the same parameters (50,000 PC12 cells per 96-well) as described above for the firefly luciferase assay, with however, three differences. Specifically, (1) 30 ng/well of the pGloSensor-22F plasmid (Promega, E2301) was used for transfection, and (2) on DIV3, cells were equilibrated in assay medium containing a 2% v/v dilution of D-luciferin (Synchem, bc219) for 2 h at 37°C before (3) the treatment of compounds for 15 min and lysis in 1x passive lysis buffer (Promega) and luciferase activity measurement.

ERBB4 NFAT = assay: ERBBprofiler barcoded NFAT pathway sensor, ERBB4 co-transfected; type: cell-based, Rattus norvegicus; conditions: PC12 cells; constant EGF 30 ng/mL, EGFld 10 ng/mL, serotonin 1 μM; 6 h; barcode readout; relative IC50
[3] = tested on: Calu-3 and NCI-H1781 cells; parameters: method as in Dong et al., 2019; conditions: growth of Calu-3 and NCI-H1781 cells; ref Dong et al., 2019; read-out: IC50_Literature, ERBB2; cited from earlier work
ERBB2/3 = ERBB2/3 (Homo sapiens, UniProt P04626+P21860); assay: ERBBprofiler barcoded split TEV assay, ERBB2/3
calcium = assay: Fluo-4 AM calcium assay in PC12 cells; type: cell-based, Rattus norvegicus; conditions: stimulation mix
Procedure: On DIV2, cells were pre-equilibrated in 10 μM Fluo-4 a.m. (Thermo Fisher Scientific, F14201) away from light for 1 h at 37°C. Next, cells were incubated in the indicator-free starvation medium to allow de-esterification for 20 min away from light at 37°C. Background fluorescence was then measured using the BMG POLARstar Optima Microplate Reader prior to adding the treatments and continuously measuring the fluorescence for the next 30 min. Fluorescence was measured using the bottom optics.

CRE sensor = CRE sensor only luciferase assay in PC12 cells; type: cell-based, Rattus norvegicus
Procedure: 50,000 PC12 cells were seeded per 96-well onto poly-L-lysin (PLL)-coated plates and transfected the following day (day in vitro 1, DIV1) with assay plasmids using Lipofectamine 3000 (Thermo Fisher Scientific). […] For pathway assays, the receptor plasmids (15 ng/well) and pathway reporter plasmids (15 ng/well) pEGR1p-luc2 for monitoring MAPK signaling, pCRE-CMVmin-luc2 for monitoring cAMP/Ca^2+ signaling, or p6xNFAT-CMVmin-luc2 for Ca^2+ signaling were used. Transient transfections were conducted according to the manufacturer’s instructions. On DIV2, cells were starved in medium containing 1% FCS for 16 h. […] In the case of antagonist assays, compounds were added at increasing doses together with the stimulus. Cells were lysed in 1x passive lysis buffer (Promega) and subjected to a firefly luciferase assay using a self-made substrate for firefly luciferase.[100] Luciferase activity was analyzed in a Mithras LB 940 Multimode Microplate Reader (Berthold Technologies). All assays were run in 96-well plates using six replicates per condition.

ERBB4 [4] = tested on: ERBB4; parameters: method as in Nam et al., 2011; conditions: tyrosine kinase assay kit (Panvera); ref Nam et al., 2011; read-out: IC50_Literature, ERBB4; cited from earlier work
ERBB2 = tested on: ERBB2; parameters: method as in Hasako et al., 2018; conditions: biochemical kinase activity assay by Carna Biosciences; ref Hasako et al., 2018; read-out: IC50_Literature, ERBB2; cited from earlier work
EGFR [5] = tested on: EGFR; parameters: method as in Hasako et al., 2018; conditions: phospho-WB in NIH/3T3 cell lines; ref Hasako et al., 2018; read-out: IC50_Literature, EGFR; cited from earlier work
ERBB4 [6] = tested on: ERBB4; parameters: method as in Hasako et al., 2018; conditions: biochemical kinase activity assay by Carna Biosciences; ref Hasako et al., 2018; read-out: IC50_Literature, ERBB4; cited from earlier work
EGFR [7] = target: EGFR (Homo sapiens, UniProt P00533); assay: ERBBprofiler barcoded split TEV assay, EGFR
ERBB2/3 NFAT = assay: ERBBprofiler barcoded NFAT pathway sensor, ERBB2/3 co-transfected; type: cell-based, Rattus norvegicus; conditions: PC12 cells; constant EGF 30 ng/mL, EGFld 10 ng/mL, serotonin 1 μM; 6 h; barcode readout; relative IC50

ERBB4 (Homo sapiens, UniProt Q15303), sequence (Q15303 26-1308): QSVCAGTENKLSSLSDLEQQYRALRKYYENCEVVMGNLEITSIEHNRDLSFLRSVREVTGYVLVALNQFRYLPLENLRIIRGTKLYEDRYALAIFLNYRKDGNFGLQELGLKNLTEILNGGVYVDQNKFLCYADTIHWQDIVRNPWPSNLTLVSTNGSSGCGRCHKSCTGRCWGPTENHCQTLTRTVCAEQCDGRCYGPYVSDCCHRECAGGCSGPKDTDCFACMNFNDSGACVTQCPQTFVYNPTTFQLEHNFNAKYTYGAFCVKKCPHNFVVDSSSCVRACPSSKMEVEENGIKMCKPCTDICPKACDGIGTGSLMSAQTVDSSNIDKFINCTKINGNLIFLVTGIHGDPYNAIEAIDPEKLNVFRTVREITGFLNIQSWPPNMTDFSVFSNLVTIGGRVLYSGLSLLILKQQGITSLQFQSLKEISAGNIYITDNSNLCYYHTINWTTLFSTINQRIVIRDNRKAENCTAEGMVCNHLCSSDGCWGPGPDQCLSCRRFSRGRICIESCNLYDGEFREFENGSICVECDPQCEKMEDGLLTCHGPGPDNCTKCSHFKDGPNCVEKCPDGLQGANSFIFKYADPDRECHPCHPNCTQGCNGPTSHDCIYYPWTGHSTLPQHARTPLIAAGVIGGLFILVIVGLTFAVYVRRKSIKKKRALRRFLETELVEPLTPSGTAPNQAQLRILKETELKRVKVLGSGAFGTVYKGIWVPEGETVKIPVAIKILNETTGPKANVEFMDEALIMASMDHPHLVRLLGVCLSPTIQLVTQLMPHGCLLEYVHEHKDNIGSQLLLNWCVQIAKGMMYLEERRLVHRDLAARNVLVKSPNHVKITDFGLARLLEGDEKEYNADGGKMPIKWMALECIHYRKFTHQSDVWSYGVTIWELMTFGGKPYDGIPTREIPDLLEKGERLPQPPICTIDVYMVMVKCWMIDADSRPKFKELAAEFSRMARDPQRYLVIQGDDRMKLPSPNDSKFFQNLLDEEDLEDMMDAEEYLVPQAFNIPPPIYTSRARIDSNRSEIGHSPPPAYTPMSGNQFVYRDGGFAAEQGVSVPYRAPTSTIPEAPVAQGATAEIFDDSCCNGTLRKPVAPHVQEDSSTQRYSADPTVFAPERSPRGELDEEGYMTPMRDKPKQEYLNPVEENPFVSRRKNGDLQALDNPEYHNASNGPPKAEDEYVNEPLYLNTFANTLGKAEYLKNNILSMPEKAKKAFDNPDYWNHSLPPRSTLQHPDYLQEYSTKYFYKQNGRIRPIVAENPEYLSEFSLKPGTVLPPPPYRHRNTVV
HTR2A, sequence (P28223 whole entry): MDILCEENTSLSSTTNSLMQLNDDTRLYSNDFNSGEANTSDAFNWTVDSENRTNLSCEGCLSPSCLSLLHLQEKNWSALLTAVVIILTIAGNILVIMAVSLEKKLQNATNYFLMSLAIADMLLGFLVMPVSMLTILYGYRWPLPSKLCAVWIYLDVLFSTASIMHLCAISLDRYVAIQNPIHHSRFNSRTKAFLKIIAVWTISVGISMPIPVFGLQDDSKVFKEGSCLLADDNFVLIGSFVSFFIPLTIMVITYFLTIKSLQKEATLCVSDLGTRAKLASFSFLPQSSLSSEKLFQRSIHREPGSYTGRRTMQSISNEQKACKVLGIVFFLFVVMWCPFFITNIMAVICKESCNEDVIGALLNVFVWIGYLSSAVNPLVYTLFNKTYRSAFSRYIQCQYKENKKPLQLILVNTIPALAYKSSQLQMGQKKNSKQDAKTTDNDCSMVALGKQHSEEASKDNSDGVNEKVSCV
ERBB2/3, sequence (P04626 23-1255): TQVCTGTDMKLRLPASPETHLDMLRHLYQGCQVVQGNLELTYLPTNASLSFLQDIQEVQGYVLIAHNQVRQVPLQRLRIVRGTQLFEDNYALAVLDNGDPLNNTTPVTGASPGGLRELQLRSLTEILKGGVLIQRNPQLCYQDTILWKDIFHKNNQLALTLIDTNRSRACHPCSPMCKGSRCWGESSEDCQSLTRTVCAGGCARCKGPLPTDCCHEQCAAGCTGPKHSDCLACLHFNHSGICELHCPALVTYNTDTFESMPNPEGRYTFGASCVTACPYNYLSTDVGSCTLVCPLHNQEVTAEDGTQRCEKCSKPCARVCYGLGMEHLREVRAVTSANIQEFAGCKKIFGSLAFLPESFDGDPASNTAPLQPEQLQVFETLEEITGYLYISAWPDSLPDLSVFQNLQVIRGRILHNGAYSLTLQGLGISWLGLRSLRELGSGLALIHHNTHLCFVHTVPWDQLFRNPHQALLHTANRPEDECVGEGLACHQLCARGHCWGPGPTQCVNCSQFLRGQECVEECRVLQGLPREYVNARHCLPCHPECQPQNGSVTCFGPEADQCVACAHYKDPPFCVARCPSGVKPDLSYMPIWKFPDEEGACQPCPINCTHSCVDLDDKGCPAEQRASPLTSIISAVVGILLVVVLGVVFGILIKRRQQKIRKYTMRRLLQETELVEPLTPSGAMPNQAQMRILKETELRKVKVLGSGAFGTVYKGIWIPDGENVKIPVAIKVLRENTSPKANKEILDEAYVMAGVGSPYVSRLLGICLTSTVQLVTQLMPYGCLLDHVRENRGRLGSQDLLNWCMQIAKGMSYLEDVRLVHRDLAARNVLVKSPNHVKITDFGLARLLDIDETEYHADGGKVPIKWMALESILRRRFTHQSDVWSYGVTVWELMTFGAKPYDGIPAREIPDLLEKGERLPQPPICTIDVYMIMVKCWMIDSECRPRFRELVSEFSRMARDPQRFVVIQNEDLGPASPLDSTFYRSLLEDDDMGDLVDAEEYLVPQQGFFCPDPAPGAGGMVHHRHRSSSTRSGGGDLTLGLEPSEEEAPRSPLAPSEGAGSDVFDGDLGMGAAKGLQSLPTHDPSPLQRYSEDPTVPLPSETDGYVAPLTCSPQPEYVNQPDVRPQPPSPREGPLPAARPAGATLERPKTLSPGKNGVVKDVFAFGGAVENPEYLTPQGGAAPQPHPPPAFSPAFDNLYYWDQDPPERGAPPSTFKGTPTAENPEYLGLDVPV
ERBB2/3, sequence (P21860 20-1342): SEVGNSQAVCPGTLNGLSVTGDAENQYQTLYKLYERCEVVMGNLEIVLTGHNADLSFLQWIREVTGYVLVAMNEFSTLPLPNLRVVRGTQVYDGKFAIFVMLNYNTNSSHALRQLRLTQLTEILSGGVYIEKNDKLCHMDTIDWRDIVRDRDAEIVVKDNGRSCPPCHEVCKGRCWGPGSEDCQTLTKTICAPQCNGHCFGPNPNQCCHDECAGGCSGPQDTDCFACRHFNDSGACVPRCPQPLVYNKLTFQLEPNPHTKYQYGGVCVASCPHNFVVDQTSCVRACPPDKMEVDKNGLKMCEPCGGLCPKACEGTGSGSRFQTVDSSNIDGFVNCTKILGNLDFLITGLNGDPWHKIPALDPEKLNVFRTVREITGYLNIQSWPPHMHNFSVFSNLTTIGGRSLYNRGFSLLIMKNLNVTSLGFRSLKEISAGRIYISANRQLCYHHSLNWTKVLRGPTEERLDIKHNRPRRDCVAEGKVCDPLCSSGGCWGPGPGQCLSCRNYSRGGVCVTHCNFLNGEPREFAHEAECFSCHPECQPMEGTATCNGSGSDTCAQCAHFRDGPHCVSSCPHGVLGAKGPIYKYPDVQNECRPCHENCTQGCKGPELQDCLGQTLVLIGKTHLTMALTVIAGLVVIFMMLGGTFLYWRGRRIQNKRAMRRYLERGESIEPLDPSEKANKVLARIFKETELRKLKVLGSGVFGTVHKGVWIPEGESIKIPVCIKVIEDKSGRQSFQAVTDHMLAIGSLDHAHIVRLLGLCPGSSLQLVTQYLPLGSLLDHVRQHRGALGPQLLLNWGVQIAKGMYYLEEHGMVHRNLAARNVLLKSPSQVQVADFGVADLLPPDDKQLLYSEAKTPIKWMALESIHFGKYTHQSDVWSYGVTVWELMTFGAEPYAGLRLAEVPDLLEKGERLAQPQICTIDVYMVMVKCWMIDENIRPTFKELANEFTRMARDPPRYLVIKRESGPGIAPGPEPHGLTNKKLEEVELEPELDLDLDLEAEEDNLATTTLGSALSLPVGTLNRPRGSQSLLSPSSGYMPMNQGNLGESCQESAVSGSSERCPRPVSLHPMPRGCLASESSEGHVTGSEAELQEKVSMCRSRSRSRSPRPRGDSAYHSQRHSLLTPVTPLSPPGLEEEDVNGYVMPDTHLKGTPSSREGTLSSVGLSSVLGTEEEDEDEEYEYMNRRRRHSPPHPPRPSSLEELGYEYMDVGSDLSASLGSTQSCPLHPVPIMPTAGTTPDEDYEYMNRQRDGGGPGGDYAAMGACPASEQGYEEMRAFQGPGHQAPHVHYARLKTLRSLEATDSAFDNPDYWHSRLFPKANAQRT

Row | SMILES | CRE sensor response at high compound concentration (barcoded) [1] | IC50 (ERBB4 [2]) | IC50 (HTR2A) | IC50 (EGFR EGR1p) | IC50 (HTR2A EGR1p) | IC50 (HTR2A NFAT) | IC50 (ERBB4 EGR1p) | IC50 (ERBB2/3 EGR1p) | ERBB4 NFAT IC50 (ERBB4 NFAT) | IC50 (ERBB2/3) | further results
1 | C=CC(=O)N1CCC(Oc2cc3c(Nc4ccc(Cl)c(Cl)c4F)ncnc3cc2OC)CC1 [Poziotinib, Poziotinib (HM781-36B)] | upregulation of the CRE sensor; also recorded: upregulated CRE sensor response | 3.11 nM | 4.56 nM | 0.89 nM | 1.14 nM | 16 nM | 0.87 nM | 0.79 nM | no effect (EGFR, ERBB2/3, ERBB4) - 0.016 µM (HTR2A) | 2.63 nM | IC50 (NCI-H1975 cells): 1.7 to 8.78 nM; EGFR NFAT IC50 (EGFR NFAT; PC12 cells, constant EGF 30 ng/mL, EGFld 10 ng/mL, serotonin 1 μM, 6 h, barcode readout, relative IC50): no effect (EGFR, ERBB2/3, ERBB4) - 0.016 µM (HTR2A); effect on cAMP levels (GloSensor) (cAMP): increase of cAMP; EC50 (cAMP; Rattus norvegicus, PC-12, 0.25 h, constant stimulation mix, 15 min, cAMP increase): 2910 nM; compound concentration resulting in elevated cAMP (GloSensor) (cAMP; stimulation mix): ≥ 3 µM; IC50 [3]: 2.5 to 6.2 nM; effect on calcium levels (Fluo-4 AM) (calcium): but not calcium levels; effect on CRE sensor activity (luciferase), in words (CRE sensor; PC12 cells, CRE sensor only, stimulation mix): CRE sensor activation at high compound concentrations; EC50 (CRE sensor; Rattus norvegicus, PC-12): 1640 nM; IC50 (ERBB4 [4]): 23.5 nM
2 | C=CC(=O)N[C@H]1C=C(C)c2c(-c3cnc4ccccc4c3)c3c(N)ncnc3n2C1 [TAS6417, TAS6417 (Zipalertinib)] | upregulated CRE sensor response | 91 nM | 444 nM | 95 nM | 193 nM | 848 nM | 55 nM | 267 nM | no effect (EGFR, ERBB2/3, ERBB4) - 0.848 µM (HTR2A, small effect) | 206 nM | IC50_ERBBpro, cAMP/Ca2+ (CRE sensor) ([1]; ERBBprofiler, no receptor named in the cell): no effect; IC50 (ERBB2): 390 nM; IC50 (EGFR [5]): 368 nM; EGFR NFAT IC50 (EGFR NFAT): no effect (EGFR, ERBB2/3, ERBB4) - 0.848 µM (HTR2A, small effect); IC50 (ERBB4 [6]): 4 nM; IC50 (EGFR [7]): 92 nM; ERBB2/3 NFAT IC50 (ERBB2/3 NFAT): no effect (EGFR, ERBB2/3, ERBB4) - 0.848 µM (HTR2A, small effect)
